Experimental data taken from the supplement of paper PMC10307832.

How the values were obtained:
Assay in all cases: relative viability (nuclei count vs DMSO), 5 days (fraction); higher = more cells survive
NCI-H522 = system: NCI-H522
In short: (§1)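 Values are medians from duplicate plates. Each reflects relative viability, defined as the nuclei count of treated wells over that of vehicle wells. Lung cancer cell lines in 1536-well plates were pin-tool dosed one day after seeding with one drug alone or with a fixed anchor-drug dose plus five library-drug doses (not always all listed) in √10 steps, then fixed, stained and imaged at 4× after 5 days.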

NCI-H1355 = system: NCI-H1355
In short: as §1

NCI-H520 = system: NCI-H520
In short: as §1

LCLC-103H = system: LCLC-103H
In short: as §1

NCI-H1623 = system: NCI-H1623
In short: as §1

A549 = system: A549
In short: as §1

SMILES: CC1(C)CCC(c2ccc(Cl)cc2)=C(CN2CCN(c3ccc(C(=O)NS(=O)(=O)c4ccc(N[C@H](CCN5CCOCC5)CSc5ccccc5)c(S(=O)(=O)C(F)(F)F)c4)cc3)CC2)C1 [Navitoclax] + Cc1nc(Nc2ncc(C(=O)Nc3c(C)cccc3Cl)s2)cc(N2CCN(CCO)CC2)n1 [Dasatinib] (partner 0.075 µM)
- relative viability (NCI-H522; first compound 0.005 µM): 0.685
- relative viability (NCI-H522; first compound 0.01581 µM): 1.02
- relative viability (NCI-H522; first compound 0.05 µM): 1.17
- relative viability (NCI-H522; first compound 0.1581 µM): 1.06
- relative viability (NCI-H522; first compound 0.5 µM): 0.816
- relative viability (NCI-H1355; first compound 0.005 µM): 0.765
- relative viability (NCI-H1355; first compound 0.01581 µM): 0.796
- relative viability (NCI-H1355; first compound 0.05 µM): 0.753
- relative viability (NCI-H1355; first compound 0.1581 µM): 0.699
- relative viability (NCI-H1355; first compound 0.5 µM): 0.729
- relative viability (NCI-H520; first compound 0.01581 µM): 0.205
- relative viability (NCI-H520; first compound 0.05 µM): 0.272
- relative viability (NCI-H520; first compound 0.1581 µM): 0.201
- relative viability (NCI-H520; first compound 0.5 µM): 0.258
- relative viability (LCLC-103H; first compound 0.005 µM): 0.468
- relative viability (LCLC-103H; first compound 0.01581 µM): 0.496
- relative viability (LCLC-103H; first compound 0.05 µM): 0.31
- relative viability (LCLC-103H; first compound 0.1581 µM): 0.539
- relative viability (LCLC-103H; first compound 0.5 µM): 0.474
- relative viability (NCI-H1623; first compound 0.005 µM): 0.546
- relative viability (NCI-H1623; first compound 0.01581 µM): 0.578
- relative viability (NCI-H1623; first compound 0.05 µM): 0.518
- relative viability (NCI-H1623; first compound 0.1581 µM): 0.539
- relative viability (NCI-H1623; first compound 0.5 µM): 0.618

SMILES: Oc1nc(-c2ccc(C(F)(F)F)cc2)nc2c1CSCC2 [XAV939] + N=C(N)NC(=N)NCCc1ccccc1 [Phenformin] (partner 250 µM)
- relative viability (NCI-H522; first compound 0.08 µM): 0.599
- relative viability (NCI-H522; first compound 0.253 µM): 0.707
- relative viability (NCI-H522; first compound 0.8 µM): 0.594
- relative viability (NCI-H522; first compound 2.53 µM): 0.599
- relative viability (NCI-H1355; first compound 0.08 µM): 0.455
- relative viability (NCI-H1355; first compound 0.253 µM): 0.428
- relative viability (NCI-H1355; first compound 0.8 µM): 0.43
- relative viability (NCI-H1355; first compound 2.53 µM): 0.435
- relative viability (NCI-H520; first compound 0.08 µM): 0.58
- relative viability (NCI-H520; first compound 0.253 µM): 0.51
- relative viability (NCI-H520; first compound 0.8 µM): 0.526
- relative viability (NCI-H520; first compound 2.53 µM): 0.401
- relative viability (A549; first compound 0.08 µM): 0.136
- relative viability (A549; first compound 0.253 µM): 0.218
- relative viability (A549; first compound 0.8 µM): 0.129
- relative viability (A549; first compound 2.53 µM): 0.175
- relative viability (LCLC-103H; first compound 0.08 µM): 0.369
- relative viability (LCLC-103H; first compound 0.253 µM): 0.29
- relative viability (LCLC-103H; first compound 0.8 µM): 0.304
- relative viability (LCLC-103H; first compound 2.53 µM): 0.315
- relative viability (NCI-H1623; first compound 0.08 µM): 0.578
- relative viability (NCI-H1623; first compound 0.253 µM): 0.555
- relative viability (NCI-H1623; first compound 0.8 µM): 0.59
- relative viability (NCI-H1623; first compound 2.53 µM): 0.591

SMILES: C=C1C(=O)O[C@@H](CCCCCCCC)[C@@H]1C(=O)O [C-75] + CCNC(=O)c1noc(-c2cc(C(C)C)c(O)cc2O)c1-c1ccc(CN2CCOCC2)cc1 [Luminespib] (partner 0.01 µM)
- relative viability (NCI-H522; first compound 0.08 µM): 1.06
- relative viability (NCI-H522; first compound 0.253 µM): 1.04
- relative viability (NCI-H522; first compound 0.8 µM): 1.06
- relative viability (NCI-H522; first compound 2.53 µM): 0.904
- relative viability (NCI-H522; first compound 8 µM): 0.911
- relative viability (NCI-H1355; first compound 0.08 µM): 0.621
- relative viability (NCI-H1355; first compound 0.253 µM): 0.668
- relative viability (NCI-H1355; first compound 0.8 µM): 0.641
- relative viability (NCI-H1355; first compound 2.53 µM): 0.394
- relative viability (NCI-H1355; first compound 8 µM): 0.615
- relative viability (NCI-H520; first compound 0.08 µM): 0.233
- relative viability (NCI-H520; first compound 0.253 µM): 0.214
- relative viability (NCI-H520; first compound 0.8 µM): 0.217
- relative viability (NCI-H520; first compound 2.53 µM): 0.208
- relative viability (NCI-H520; first compound 8 µM): 0.331
- relative viability (LCLC-103H; first compound 0.08 µM): 0.912
- relative viability (LCLC-103H; first compound 0.253 µM): 1.02
- relative viability (LCLC-103H; first compound 0.8 µM): 0.83
- relative viability (LCLC-103H; first compound 2.53 µM): 0.932
- relative viability (LCLC-103H; first compound 8 µM): 0.888
- relative viability (NCI-H1623; first compound 0.08 µM): 0.436
- relative viability (NCI-H1623; first compound 0.253 µM): 0.536
- relative viability (NCI-H1623; first compound 0.8 µM): 0.585
- relative viability (NCI-H1623; first compound 2.53 µM): 0.505
- relative viability (NCI-H1623; first compound 8 µM): 0.475

SMILES: O=C(O)c1ccc(-c2c[nH]c3ncc(-c4ccccc4)cc23)cc1C1CCCC1 + CCNC(=O)c1noc(-c2cc(C(C)C)c(O)cc2O)c1-c1ccc(CN2CCOCC2)cc1 [Luminespib] (partner 0.01 µM)
- relative viability (NCI-H522; first compound 0.04 µM): 1.37
- relative viability (NCI-H522; first compound 0.1265 µM): 1.19
- relative viability (NCI-H522; first compound 0.4 µM): 0.998
- relative viability (NCI-H522; first compound 1.265 µM): 1.03
- relative viability (NCI-H1355; first compound 0.04 µM): 0.692
- relative viability (NCI-H1355; first compound 0.1265 µM): 0.622
- relative viability (NCI-H1355; first compound 0.4 µM): 0.464
- relative viability (NCI-H1355; first compound 1.265 µM): 0.384
- relative viability (NCI-H520; first compound 0.04 µM): 0.223
- relative viability (NCI-H520; first compound 0.1265 µM): 0.195
- relative viability (NCI-H520; first compound 0.4 µM): 0.211
- relative viability (NCI-H520; first compound 1.265 µM): 0.217
- relative viability (LCLC-103H; first compound 0.04 µM): 1.08
- relative viability (LCLC-103H; first compound 0.1265 µM): 1.05
- relative viability (LCLC-103H; first compound 0.4 µM): 0.84
- relative viability (LCLC-103H; first compound 1.265 µM): 0.713
- relative viability (NCI-H1623; first compound 0.04 µM): 0.445
- relative viability (NCI-H1623; first compound 0.1265 µM): 0.471
- relative viability (NCI-H1623; first compound 0.4 µM): 0.512
- relative viability (NCI-H1623; first compound 1.265 µM): 0.496
